The values that follow come from patent publication US7387806B2, “Method of using geranium oil and sophora root extracts as a supporting composition in cancer treatments” (priority 2001, dated 2008).

The data set can be described thus: Pharmacokinetics study of intravenous injection of matrine or oxymatrine with addition of geranium oil. The protocol:
The Sophora root typically is about 10-30 cm long, 1-2 cm in diameter and generally takes on a grayish brown or grayish yellow color. The root preferably has a mild scent and an extremely bitter taste. It is grown mainly in China, Korea, and Japan. Presently, the alkaloids identified in Sophora roots are matrine, oxymatrine, sophoranol, N-methylcytisine, anagyrine, baptifoline, sophocarpine, sophoridine, iso matrine, 7, 11-Dehydromatrine, sophoramine, 7-Dehydrosophoramine, 9α-Hydroxy-Sophoramine, 5α,9α-Dihydroxymatrine, N-Oxysophocarpine, sophoranol N-oxide, rhombifoline, Lupanine, Mamanine, Kuraramine, Isokuraramine, Kurarinol. The known main constituents are matrine, oxymatrine. The principal main constituents of Sophora flavescenes are also found in Sophora subprostrata, Sophora tonkinensis, Sophora alopecuroides, Sophora moorcroftiana, and Euchresta strigillosa.

Each structure is given as a SMILES string.

For `O=C1CCC[C@@H]2[C@H]3CCCN4CCC[C@@H](CN12)[C@@H]34` [matrine], the “effect of addition of geranium oil on absorption and metabolism of the compound” value (intravenous injection, with vs without geranium oil) is “increase the absorption and metabolism”.
Regarding `O=C1CCC[C@@H]2[C@H]3CCC[N+]4([O-])CCC[C@@H](CN12)[C@@H]34` (some centres unmarked) [oxymatrine], the “effect of addition of geranium oil on absorption and metabolism of the compound” value (in vivo, iv) is “increase the absorption and metabolism”.
